Experiments:
[1] = target: T1, AChE (E.C.3.1.1.7., Type VI-S, from electric eel) (Electrophorus electricus, UniProt O42275); test: AChE inhibition, modified Ellman colorimetric method; format: biochemical; conditions: pH 8.0, 5-min incubation, mean ± SEM of triplicate independent experiments
T1 construct: purchased Sigma-Aldrich (Steinheim, Germany) Type VI-S
Source text: (§1) AChE (E.C.3.1.1.7., Type VI-S, from electric eel) and BuChE (E.C.3.1.1.8., from equine serum) were purchased from Sigma-Aldrich (Steinheim, Germany). 5,5′-Dithiobis(2-nitrobenzoic acid) (DTNB, Ellman’s reagent) acetylthiocholine iodide (AChI) and butyrylthiocholine iodide (BChI) used as substrates were obtained from Fluka. Buffer compounds (potassium dihydrogen phosphate, potassium hydroxide) and sodium hydrogen carbonate were purchased from Merck (Darmstadt, Germany). Spectrophotometric measurements were performed on a Shimadzu 160-A UV-Vis spectrophotometer.
(§2) The inhibitory effects of the synthesized compounds on AChE and BuChE were evaluated using a slightly modified colorimetric method of Ellman et al., with galantamine as the reference compound[41–45]. Prior to use, all solutions were adjusted to 20 °C. Enzyme solution (100 μL) and inhibitor solution (100 μL) were added into a cuvette containing the phosphate buffer (3.0 mL, 0.1 M; pH 8.0). After 5-min incubation, required aliquots of the DTNB solution (100 μL) and of the AChI/BChI (20 μL) were added. After rapid and immediate mixing, the absorption was measured at 412 nm by UV spectroscopy. As a reference, an identical solution of the enzyme without the inhibitor is processed following the same protocol. The blank reading contained 3.0 mL buffer, 200 μL water, 100 μL DTNB and 20 μL substrate. The enzyme activity was determined in the presence of at least five different concentrations of an inhibitor. Each concentration was assayed in triplicate. The samples were investigated immediately after preparation.
(§3) Inhibitory activities of the synthesized compounds against AChE and BuChE were evaluated by modified Ellman method, using galantamine as the reference compound[41–45]. The AChE inhibitory activity was determined by using electric eel acetylcholinesterase and the BuChE inhibitory activity was tested by using equine serum butyrylcholinesterase.

[2] = target: T2, BuChE (E.C.3.1.1.8., from equine serum) (Equus caballus, UniProt P81908); test: BuChE inhibition, modified Ellman colorimetric method; format: biochemical; conditions: pH 8.0, 5-min incubation, mean ± SEM of triplicate independent experiments
T2 construct: BuChE (E.C.3.1.1.8., from equine serum); purchased Sigma-Aldrich (Steinheim, Germany); host or cells: equine serum
Source text: as §1, §2, §3

T2 sequence (P81908 whole entry): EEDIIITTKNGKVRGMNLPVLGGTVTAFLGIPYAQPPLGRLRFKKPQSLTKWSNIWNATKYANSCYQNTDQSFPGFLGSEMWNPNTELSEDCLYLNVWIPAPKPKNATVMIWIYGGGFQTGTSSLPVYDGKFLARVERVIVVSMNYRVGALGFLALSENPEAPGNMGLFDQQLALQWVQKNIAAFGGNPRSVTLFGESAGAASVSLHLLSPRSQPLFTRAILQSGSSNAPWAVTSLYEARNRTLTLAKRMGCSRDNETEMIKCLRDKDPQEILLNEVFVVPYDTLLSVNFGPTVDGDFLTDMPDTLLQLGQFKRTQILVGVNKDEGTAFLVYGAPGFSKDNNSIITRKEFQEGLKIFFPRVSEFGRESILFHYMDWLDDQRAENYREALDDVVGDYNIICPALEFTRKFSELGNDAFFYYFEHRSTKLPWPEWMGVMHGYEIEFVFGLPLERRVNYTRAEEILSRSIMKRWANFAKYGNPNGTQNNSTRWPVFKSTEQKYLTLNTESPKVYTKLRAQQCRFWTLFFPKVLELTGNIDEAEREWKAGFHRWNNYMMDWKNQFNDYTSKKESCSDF
T1 sequence (O42275 24-633): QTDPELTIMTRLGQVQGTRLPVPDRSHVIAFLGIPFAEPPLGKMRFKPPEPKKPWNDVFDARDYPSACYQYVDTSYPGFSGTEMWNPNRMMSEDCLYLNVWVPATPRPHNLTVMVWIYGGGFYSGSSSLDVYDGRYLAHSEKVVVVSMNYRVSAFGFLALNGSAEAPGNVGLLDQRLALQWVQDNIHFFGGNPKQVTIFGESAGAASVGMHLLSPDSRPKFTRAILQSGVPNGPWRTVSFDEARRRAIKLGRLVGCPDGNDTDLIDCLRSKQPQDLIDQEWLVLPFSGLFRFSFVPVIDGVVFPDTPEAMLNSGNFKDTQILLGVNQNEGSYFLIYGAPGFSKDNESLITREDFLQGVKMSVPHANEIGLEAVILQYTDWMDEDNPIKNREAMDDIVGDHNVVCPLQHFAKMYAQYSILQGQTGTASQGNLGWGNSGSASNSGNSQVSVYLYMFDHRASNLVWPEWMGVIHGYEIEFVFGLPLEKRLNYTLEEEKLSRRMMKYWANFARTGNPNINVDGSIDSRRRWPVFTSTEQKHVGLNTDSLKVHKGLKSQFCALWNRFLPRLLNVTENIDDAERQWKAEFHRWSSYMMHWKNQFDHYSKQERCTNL

Compound | IC50 [1] [µM] | IC50 [2] [µM]
Cc1ccccc1NS(=O)(=O)c1ccc(N2C(=O)c3ccccc3C2=O)cc1 [Compound 1, 4-(1,3-Dioxoisoindolin-2-yl)-N-(o-tolyl)benzenesulfonamide] | 6.84 ± 0.17 | 74.4 ± 2.34
COc1ccccc1NS(=O)(=O)c1ccc(N2C(=O)c3ccccc3C2=O)cc1 [Compound 2, 4-(1,3-Dioxoisoindolin-2-yl)-N-(2-methoxyphenyl)benzenesulfonamide] | 6.79 ± 0.41 | 44.2 ± 13.4
CC(C)c1ccccc1NS(=O)(=O)c1ccc(N2C(=O)c3ccccc3C2=O)cc1 [Compound 3, 4-(1,3-Dioxoisoindolin-2-yl)-N-(2-isopropylphenyl)benzenesulfonamide] | 8.19 ± 0.13 | 13.4 ± 0.62
Cc1ccc(NS(=O)(=O)c2ccc(N3C(=O)c4ccccc4C3=O)cc2)cc1 [Compound 4, 4-(1,3-Dioxoisoindolin-2-yl)-N-(p-tolyl)benzenesulfonamide] | 8.61 ± 0.18 | 85 ± 13.7
COc1ccc(NS(=O)(=O)c2ccc(N3C(=O)c4ccccc4C3=O)cc2)cc1 [Compound 5, 4-(1,3-Dioxoisoindolin-2-yl)-N-(4-methoxyphenyl)benzenesulfonamide] | 8.52 ± 0.18 | 87.2 ± 13.2
O=C1c2ccccc2C(=O)N1c1ccc(S(=O)(=O)Nc2ccc(Cl)cc2)cc1 [Compound 6, 4-(1,3-Dioxoisoindolin-2-yl)-N-(4-chlorophenyl)benzenesulfonamide] | 8.21 ± 0.14 | 78.1 ± 5.39
CCN(CC)S(=O)(=O)c1ccc(N2C(=O)c3ccccc3C2=O)cc1 [Compound 7, 4-(1,3-Dioxoisoindolin-2-yl)-N,N-diethylbenzenesulfonamide] | 1.35 ± 0.08 | > 100
O=C1c2ccccc2C(=O)N1c1ccc(S(=O)(=O)N2CCCC2)cc1 [Compound 8, 2-(4-(Pyrrolidin-1-ylsulfonyl)phenyl)isoindoline-1,3-dione] | > 100 | > 100
O=C1c2ccccc2C(=O)N1c1ccc(S(=O)(=O)N2CCCCC2)cc1 [Compound 9, 2-(4-(Piperidin-1-ylsulfonyl)phenyl)isoindoline-1,3-dione] | 10.4 ± 0.61 | > 100
CC1CCCCN1S(=O)(=O)c1ccc(N2C(=O)c3ccccc3C2=O)cc1 (stereo not shown) [Compound 10, 2-(4-((2-Methylpiperidin-1-yl)sulfonyl)phenyl)isoindoline-1,3-dione] | 8.05 ± 0.54 | 75.2 ± 23.8
O=C1c2ccccc2C(=O)N1c1ccc(S(=O)(=O)N2CCOCC2)cc1 [Compound 11, 2-(4-(Morpholinosulfonyl)phenyl)isoindoline-1,3-dione] | 7.95 ± 0.22 | 56.7 ± 3.26

Source: publication PMC6009942, “Synthesis and molecular docking studies of some 4-phthalimidobenzenesulfonamide derivatives as acetylcholinesterase and butyrylcholinesterase inhibitors” (Journal of Enzyme Inhibition and Medicinal Chemistry, 2016)
